{"source": "paper PMC11868595", "about": "“Safety, pharmacokinetics and efficacy of HA121-28 in patients with advanced solid tumors and RET fusion-positive non-small-cell lung cancer: a multicenter, open-label, single-arm phase 1/2 trial” (Signal Transduction and Targeted Therapy, 2025)", "key": {"[1]": {"test": "Metabolites in plasma", "details": "dogs"}, "[2]": {"tested_on": "Q-T interval", "details": "single oral dose 5, 10, and 15 mg/kg"}, "[3]": {"target": "TrkA (Homo sapiens, UniProt P04629)", "sequence (P04629 33-796)": "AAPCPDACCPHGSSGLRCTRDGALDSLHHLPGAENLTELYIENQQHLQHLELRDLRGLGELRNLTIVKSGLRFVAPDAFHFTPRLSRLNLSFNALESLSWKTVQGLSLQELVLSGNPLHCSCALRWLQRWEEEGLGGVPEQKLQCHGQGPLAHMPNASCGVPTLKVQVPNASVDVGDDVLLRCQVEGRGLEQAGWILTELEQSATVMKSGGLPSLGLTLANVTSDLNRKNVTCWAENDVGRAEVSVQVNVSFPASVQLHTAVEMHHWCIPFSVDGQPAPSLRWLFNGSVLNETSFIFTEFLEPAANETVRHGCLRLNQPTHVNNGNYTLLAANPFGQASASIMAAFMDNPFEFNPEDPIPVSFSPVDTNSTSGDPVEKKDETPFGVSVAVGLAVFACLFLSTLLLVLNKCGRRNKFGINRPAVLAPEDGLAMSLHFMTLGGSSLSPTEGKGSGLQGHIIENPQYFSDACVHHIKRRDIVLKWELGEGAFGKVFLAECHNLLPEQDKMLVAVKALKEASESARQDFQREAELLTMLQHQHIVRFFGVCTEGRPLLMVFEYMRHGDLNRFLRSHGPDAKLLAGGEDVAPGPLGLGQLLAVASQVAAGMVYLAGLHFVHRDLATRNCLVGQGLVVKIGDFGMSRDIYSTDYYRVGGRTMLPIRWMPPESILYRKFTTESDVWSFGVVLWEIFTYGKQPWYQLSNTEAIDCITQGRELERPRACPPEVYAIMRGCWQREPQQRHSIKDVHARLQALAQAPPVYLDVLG", "test": "Tyrosine kinase inhibition", "type": "biochemical"}, "[4]": {"test": "Dog plasma kinetics", "type": "in vivo"}, "[5]": {"target": "EGFR(T790M /L828R) (Homo sapiens, UniProt P00533, T790M)", "sequence (P00533 695-1210 T790M, form open)": "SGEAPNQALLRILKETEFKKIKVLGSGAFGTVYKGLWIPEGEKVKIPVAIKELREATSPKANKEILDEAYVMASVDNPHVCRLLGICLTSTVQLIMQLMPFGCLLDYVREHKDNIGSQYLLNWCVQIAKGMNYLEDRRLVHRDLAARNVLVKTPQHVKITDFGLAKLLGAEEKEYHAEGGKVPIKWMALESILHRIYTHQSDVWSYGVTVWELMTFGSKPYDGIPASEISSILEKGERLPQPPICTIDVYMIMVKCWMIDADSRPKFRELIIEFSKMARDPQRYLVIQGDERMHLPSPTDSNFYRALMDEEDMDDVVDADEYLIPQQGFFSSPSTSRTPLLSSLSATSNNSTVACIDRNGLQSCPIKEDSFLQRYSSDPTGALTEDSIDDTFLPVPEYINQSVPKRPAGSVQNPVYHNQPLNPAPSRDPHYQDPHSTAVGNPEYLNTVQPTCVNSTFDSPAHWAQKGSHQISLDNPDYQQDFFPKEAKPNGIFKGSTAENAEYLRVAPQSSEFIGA", "test": "Tyrosine kinase inhibition", "type": "biochemical"}, "[6]": {"target": "RON (Homo sapiens, UniProt Q04912)", "sequence (Q04912 25-1400)": "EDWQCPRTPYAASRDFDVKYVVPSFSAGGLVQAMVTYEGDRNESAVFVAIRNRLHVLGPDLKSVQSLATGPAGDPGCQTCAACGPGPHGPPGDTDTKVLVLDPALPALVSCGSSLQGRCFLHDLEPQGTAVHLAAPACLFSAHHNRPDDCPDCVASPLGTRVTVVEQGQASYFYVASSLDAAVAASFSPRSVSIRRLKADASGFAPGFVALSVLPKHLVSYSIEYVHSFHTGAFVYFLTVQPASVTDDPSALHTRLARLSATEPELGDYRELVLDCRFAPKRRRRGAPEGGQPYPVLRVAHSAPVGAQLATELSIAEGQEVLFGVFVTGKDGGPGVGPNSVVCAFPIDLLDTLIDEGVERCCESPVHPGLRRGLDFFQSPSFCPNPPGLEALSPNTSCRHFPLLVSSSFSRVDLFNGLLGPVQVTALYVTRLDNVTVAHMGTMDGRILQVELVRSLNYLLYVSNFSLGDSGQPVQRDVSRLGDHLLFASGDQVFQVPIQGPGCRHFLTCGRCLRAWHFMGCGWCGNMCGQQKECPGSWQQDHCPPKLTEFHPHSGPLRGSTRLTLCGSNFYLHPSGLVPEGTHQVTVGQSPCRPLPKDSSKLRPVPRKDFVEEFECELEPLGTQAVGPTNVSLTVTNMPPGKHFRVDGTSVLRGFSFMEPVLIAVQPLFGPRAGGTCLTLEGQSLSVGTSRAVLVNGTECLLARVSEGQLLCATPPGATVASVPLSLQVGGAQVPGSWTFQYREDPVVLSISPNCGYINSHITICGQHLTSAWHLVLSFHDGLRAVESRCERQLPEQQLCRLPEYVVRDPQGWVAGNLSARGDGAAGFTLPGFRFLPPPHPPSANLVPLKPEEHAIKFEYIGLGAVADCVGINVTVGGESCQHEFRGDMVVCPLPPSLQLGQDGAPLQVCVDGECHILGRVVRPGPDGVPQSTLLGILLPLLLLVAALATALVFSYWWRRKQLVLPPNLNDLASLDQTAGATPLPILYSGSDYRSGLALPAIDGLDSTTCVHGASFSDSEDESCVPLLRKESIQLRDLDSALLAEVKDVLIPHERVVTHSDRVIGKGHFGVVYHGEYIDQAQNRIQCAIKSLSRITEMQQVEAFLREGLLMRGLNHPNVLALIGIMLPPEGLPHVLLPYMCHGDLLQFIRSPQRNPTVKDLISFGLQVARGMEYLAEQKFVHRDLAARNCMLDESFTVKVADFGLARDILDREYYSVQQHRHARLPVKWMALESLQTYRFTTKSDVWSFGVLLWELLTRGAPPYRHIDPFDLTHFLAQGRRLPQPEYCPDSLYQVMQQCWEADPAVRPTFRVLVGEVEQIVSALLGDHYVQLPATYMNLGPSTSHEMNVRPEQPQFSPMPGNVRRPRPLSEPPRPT", "test": "Tyrosine kinase inhibition", "type": "biochemical"}, "[7]": {"tested_on": "arterial ring angiogenesis", "test": "Rat arterial ring angiogenesis"}, "[8]": {"tested_on": "HUVEC cells", "details": "50 ng/mL VEGF165"}, "[9]": {"tested_on": "HT29 cells", "test": "Tumor cell proliferation in vitro", "type": "cell-based"}, "[10]": {"test": "Tissue distribution in rats", "type": "in vivo", "details": "for time of distribution peak: intragastric"}}, "data": [{"smiles": "COc1cc2c(Nc3ccc(Br)cc3F)ncnc2cc1OCCCCN(C)C.Cl.Cl", "note": "[HA121-28, N-(4-bromo-2-fluorophenyl)-7-(4-(dimethylamino)butoxy)-6-methoxy quinazolin-4-amine dihydrochloride]", "values": [{"measurement": "number of metabolites found in plasma", "setting": "[1]", "value": 7}, {"measurement": "Q-T interval and corrected Q-T interval", "setting": "[2]", "value": "mild prolongation"}, {"measurement": "IC50", "setting": "[3]", "value": 1360, "unit": "nM"}, {"measurement": "AUC0-72h", "setting": "[4]; 7 consecutive days (5 mg/kg)", "value": "639 ± 69.0", "unit": "ng·h/mL"}, {"measurement": "AUC0-∞", "setting": "[4]; 7 consecutive days (5 mg/kg)", "value": "655 ± 72.2", "unit": "ng·h/mL"}, {"measurement": "CL", "setting": "[4]; 7 consecutive days (5 mg/kg)", "value": "175 ± 21.5", "unit": "mL/min/kg"}, {"measurement": "Cmax", "setting": "[4]; 7 consecutive days (5 mg/kg)", "value": "30.6 ± 3.25", "unit": "ng/mL"}, {"measurement": "MRT0-∞", "setting": "[4]; 7 consecutive days (5 mg/kg)", "value": "18.5 ± 1.89", "unit": "h"}, {"measurement": "Tmax", "setting": "[4]; 7 consecutive days (5 mg/kg)", "value": "6.17 ± 2.48", "unit": "h"}, {"measurement": "Vd", "setting": "[4]; 7 consecutive days (5 mg/kg)", "value": "214 ± 25.1", "unit": "L/kg"}, {"measurement": "t1/2", "setting": "[4]; 7 consecutive days (5 mg/kg)", "value": "14.2 ± 1.19", "unit": "h"}, {"measurement": "F (oral bioavailability)", "setting": "[4]; dog", "value": 56.0, "unit": "%"}, {"measurement": "AUC0-72h", "setting": "[4]; high dose (10 mg/kg)", "value": "837 ± 207", "unit": "ng·h/mL"}, {"measurement": "AUC0-∞", "setting": "[4]; high dose (10 mg/kg)", "value": "848 ± 212", "unit": "ng·h/mL"}, {"measurement": "CL", "setting": "[4]; high dose (10 mg/kg)", "value": "212 ± 75.2", "unit": "mL/min/kg"}, {"measurement": "Cmax", "setting": "[4]; high dose (10 mg/kg)", "value": "58.9 ± 26.7", "unit": "ng/mL"}, {"measurement": "MRT0-72h", "setting": "[4]; high dose (10 mg/kg)", "value": "14.8 ± 1.96", "unit": "h"}, {"measurement": "MRT0-∞", "setting": "[4]; high dose (10 mg/kg)", "value": "15.7 ± 2.45", "unit": "h"}, {"measurement": "Tmax", "setting": "[4]; high dose (10 mg/kg)", "value": "2.17 ± 0.753", "unit": "h"}, {"measurement": "Vd", "setting": "[4]; high dose (10 mg/kg)", "value": "197 ± 57.5", "unit": "L/kg"}, {"measurement": "t1/2", "setting": "[4]; high dose (10 mg/kg)", "value": "11.0 ± 1.51", "unit": "h"}, {"measurement": "AUC0-72h", "setting": "[4]; intravenous (2.5 mg/kg)", "value": "489 ± 73.0", "unit": "ng·h/mL"}, {"measurement": "AUC0-∞", "setting": "[4]; intravenous (2.5 mg/kg)", "value": "493 ± 73.7", "unit": "ng·h/mL"}, {"measurement": "C5min", "setting": "[4]; intravenous (2.5 mg/kg)", "value": "124 ± 17.6", "unit": "ng/mL"}, {"measurement": "CL", "setting": "[4]; intravenous (2.5 mg/kg)", "value": "86.3 ± 14.8", "unit": "mL/min/kg"}, {"measurement": "MRT0-72h", "setting": "[4]; intravenous (2.5 mg/kg)", "value": "10.9 ± 1.30", "unit": "h"}, {"measurement": "MRT0-∞", "setting": "[4]; intravenous (2.5 mg/kg)", "value": "11.5 ± 1.51", "unit": "h"}, {"measurement": "Vd", "setting": "[4]; intravenous (2.5 mg/kg)", "value": "85.0 ± 27.0", "unit": "L/kg"}, {"measurement": "t1/2", "setting": "[4]; intravenous (2.5 mg/kg)", "value": "11.2 ± 1.70", "unit": "h"}, {"measurement": "AUC0-72h", "setting": "[4]; low dose (2.5 mg/kg)", "value": "274 ± 68.2", "unit": "ng·h/mL"}, {"measurement": "AUC0-∞", "setting": "[4]; low dose (2.5 mg/kg)", "value": "279 ± 70.5", "unit": "ng·h/mL"}, {"measurement": "CL", "setting": "[4]; low dose (2.5 mg/kg)", "value": "157 ± 37.3", "unit": "mL/min/kg"}, {"measurement": "Cmax", "setting": "[4]; low dose (2.5 mg/kg)", "value": "13.4 ± 2.71", "unit": "ng/mL"}, {"measurement": "MRT0-72h", "setting": "[4]; low dose (2.5 mg/kg)", "value": "16.3 ± 2.03", "unit": "h"}, {"measurement": "MRT0-∞", "setting": "[4]; low dose (2.5 mg/kg)", "value": "17.6 ± 2.45", "unit": "h"}, {"measurement": "Tmax", "setting": "[4]; low dose (2.5 mg/kg)", "value": "6.50 ± 3.51", "unit": "h"}, {"measurement": "Vd", "setting": "[4]; low dose (2.5 mg/kg)", "value": "160 ± 41.3", "unit": "L/kg"}, {"measurement": "t1/2", "setting": "[4]; low dose (2.5 mg/kg)", "value": "11.8 ± 1.00", "unit": "h"}, {"measurement": "AUC0-72h", "setting": "[4]; medium dose (5 mg/kg)", "value": "393 ± 74.0", "unit": "ng·h/mL"}, {"measurement": "AUC0-∞", "setting": "[4]; medium dose (5 mg/kg)", "value": "398 ± 75.3", "unit": "ng·h/mL"}, {"measurement": "CL", "setting": "[4]; medium dose (5 mg/kg)", "value": "217 ± 42.8", "unit": "mL/min/kg"}, {"measurement": "Cmax", "setting": "[4]; medium dose (5 mg/kg)", "value": "24.8 ± 3.90", "unit": "ng/mL"}, {"measurement": "MRT0-72h", "setting": "[4]; medium dose (5 mg/kg)", "value": "14.3 ± 1.36", "unit": "h"}, {"measurement": "MRT0-∞", "setting": "[4]; medium dose (5 mg/kg)", "value": "15.2 ± 1.57", "unit": "h"}, {"measurement": "Tmax", "setting": "[4]; medium dose (5 mg/kg)", "value": "2.17 ± 0.753", "unit": "h"}, {"measurement": "Vd", "setting": "[4]; medium dose (5 mg/kg)", "value": "217 ± 53.6", "unit": "L/kg"}, {"measurement": "t1/2", "setting": "[4]; medium dose (5 mg/kg)", "value": "11.5 ± 1.16", "unit": "h"}, {"measurement": "IC50", "setting": "[5]", "value": 166, "unit": "nM"}, {"measurement": "IC50", "setting": "[6]", "value": "> 10000", "unit": "nM"}, {"measurement": "rat arterial ring angiogenesis", "setting": "[7]", "value": "able to inhibit"}, {"measurement": "IC50", "setting": "[8]", "value": 65.4, "unit": "nM"}, {"measurement": "IC50", "setting": "[9]", "value": "5400 ± 813", "unit": "nM"}, {"measurement": "content at 72 h post-dose as fraction of distribution peak", "setting": "[10]; adrenal glands", "value": "1/8"}, {"measurement": "tissue AUC0-72h exposure relative to plasma", "setting": "[10]; bone marrow", "value": "≈ 1.3 times plasma"}, {"measurement": "tissue AUC0-72h exposure relative to plasma", "setting": "[10]; brain, adipose tissue, muscles", "value": "3~9 times plasma"}, {"measurement": "tissue AUC0-72h exposure relative to plasma", "setting": "[10]; liver, kidneys, ovaries", "value": "≈ 100 times plasma"}, {"measurement": "time of distribution peak", "setting": "[10]; liver, stomach, intestines", "value": 0.5, "unit": "h"}, {"measurement": "time of distribution peak", "setting": "[10]; most tissues", "value": 4, "unit": "h"}, {"measurement": "tissue AUC0-72h exposure relative to plasma", "setting": "[10]; spleen, lungs, adrenal glands", "value": "≈ 200 times plasma"}, {"measurement": "time of distribution peak", "setting": "[10]; testes", "value": 24, "unit": "h"}, {"measurement": "content at 72 h post-dose as fraction of distribution peak", "setting": "[10]; uterus", "value": "1/5"}, {"measurement": "tissue AUC0-72h exposure relative to plasma", "setting": "[10]; uterus, testes, thymus, intestines, thyroid, heart, stomach", "value": "20~60 times plasma"}]}]}
